The values that follow come from patent US9610234B2, “Combinations of alkylamidothiazoles and preservatives” (Beiersdorf AG, priority 2013, dated 2017).

Molecules are shown by their SMILES.

The target of this test is T1, human tyrosinase (Homo sapiens, UniProt P14679).
T1 sequence (P14679 19-529): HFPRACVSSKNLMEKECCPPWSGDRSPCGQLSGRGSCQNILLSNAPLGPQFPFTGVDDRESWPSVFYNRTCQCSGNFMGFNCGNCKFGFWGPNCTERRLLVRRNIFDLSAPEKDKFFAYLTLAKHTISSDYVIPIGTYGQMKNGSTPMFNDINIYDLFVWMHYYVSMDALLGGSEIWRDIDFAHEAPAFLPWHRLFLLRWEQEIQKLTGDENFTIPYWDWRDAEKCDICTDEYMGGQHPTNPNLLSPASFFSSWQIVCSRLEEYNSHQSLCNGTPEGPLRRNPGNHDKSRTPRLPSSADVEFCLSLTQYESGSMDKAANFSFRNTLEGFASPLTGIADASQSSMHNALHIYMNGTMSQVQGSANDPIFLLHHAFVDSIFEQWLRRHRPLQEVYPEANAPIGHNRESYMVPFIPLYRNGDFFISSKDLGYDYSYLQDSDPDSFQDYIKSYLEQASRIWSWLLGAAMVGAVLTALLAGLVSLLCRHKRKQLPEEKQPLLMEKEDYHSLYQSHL
As to the kind of experiment: Enzyme test: conversion of L-DOPA to L-dopaquinone by human tyrosinase (MBTH, absorption at 490 nm). The format is biochemical. The note with it: tyrosinase activity. The procedure: Method Description of the Effectiveness Investigations:
In this literature-known method (Winder, A. J. and Harris, H., New assays for the tyrosine hydroxylase and dopa oxidase activities of tyrosinase. Eur. J. Biochem. (1991), 198, 317-26), the reaction product L-dopaquinone is reacted with MBTH (3-methyl-2-benzothiazoline hydrazone) to give a pink-colored substance, the increase of which is measured over time by absorption at 490 nm. […] It can be concluded from this that the substances according to the invention are extremely effective pigmentation-inhibiting substances.

As for `CC(C)C(=O)Nc1nc(-c2ccc(O)cc2O)cs1` [N-(4-(2,4-dihydroxyphenyl)thiazol-2-yl)isobutyramide], the “Inhibition (% of the control)” value (concentration 0.4 μg/mL) was 38.2 % of the control.
As for `C/C=C/C=C/C(=O)[O-].[K+]` [Potassium sorbate], where the note is “concentration 200 μg/mL”, the “Inhibition (% of the control)” value is 42.0 % of the control.
In the case of `O=C([O-])c1ccccc1.[Na+]` [Sodium benzoate], for the setting “concentration 200 μg/mL”, the “Inhibition (% of the control)” value is 43.6 % of the control.
